# Assay results from US9050341B2, “Methods of treating drug resistant and other tumors by administering 6,7-dialkoxy quinazoline derivatives” (NATCO PHARMA LIMITED, priority 2009, dated 2015).
# Tests used:
# Test in all cases: KinomeScan kinase profiling
# Format in all cases: binding
# BTK = molecular target: T1, BTK (Homo sapiens, UniProt Q06187)
# T1 construct: purchased Ambit Biosciences Corp (KinomeScan); host or cells: E. coli host derived from the BL21 strain, T7 phage
# Summary of the method: (§1)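 Kinases were expressed as T7 phage fusions in a BL21-derived E. coli host and the cleared lysates were used. Ligand beads were blocked with biotin and buffer (1% BSA, 0.05% Tween 20, 1 mM DTT). Compounds came from 40× DMSO stocks, and phage in the eluates was titred by qPCR.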
# CDC2L2 = molecular target: T2, CDC2L2 (Homo sapiens, UniProt Q9UQ88)
# T2 construct: host or cells: T7 phage in E. coli (BL21-derived)
# Summary of the method: as §1
# CHEK2 = molecular target: T3, CHEK2 (Homo sapiens, UniProt O96017)
# T3 construct: host or cells: T7 phage in E. coli (BL21-derived)
# Summary of the method: as §1
# DRAK2 = molecular target: T4, DRAK2 (Homo sapiens, UniProt O94768)
# T4 construct: purchased Ambit Biosciences Corp (KinomeScan); host or cells: T7 phage in E. coli host derived from BL21
# Summary of the method: as §1
# ERK1 = molecular target: T5, ERK1 (Homo sapiens, UniProt P27361)
# T5 construct: host or cells: E. coli host derived from BL21, T7 phage lysate
# Summary of the method: as §1
# FGFR3 = molecular target: T6, FGFR3 (Homo sapiens, UniProt P22607)
# T6 construct: host or cells: E. coli host derived from BL21, infected with T7 phage
# Summary of the method: as §1
# IKK-epsilon = molecular target: T7, IKK-epsilon (Homo sapiens, UniProt Q14164)
# T7 construct: host or cells: T7 phage in E. coli host derived from BL21
# Summary of the method: as §1
# [1] = molecular target: T8, JAK1 (JH1domain-catalytic) (Homo sapiens, UniProt P23458)
# T8 construct: JAK1 (JH1domain-catalytic); host or cells: T7 phage in E. coli host derived from BL21
# Summary of the method: as §1
# MST4 = molecular target: T9, MST4 (Homo sapiens, UniProt Q9P289)
# T9 construct: host or cells: T7 phage in E. coli host derived from BL21
# Summary of the method: as §1
# PAK4 = molecular target: T10, PAK4 (Homo sapiens, UniProt O96013)
# T10 construct: host or cells: E. coli host derived from the BL21 strain, infected with T7 phage
# Summary of the method: as §1
# PCTK3 = molecular target: T11, PCTK3 (Homo sapiens, UniProt Q07002)
# T11 construct: host or cells: E. coli host derived from the BL21 strain, infected with T7 phage
# Summary of the method: as §1
# PFTAIRE2 = molecular target: T12, PFTAIRE2 (Homo sapiens, UniProt Q96Q40)
# T12 construct: host or cells: E. coli host derived from the BL21 strain, infected with T7 phage
# Summary of the method: as §1
# PIK3CA (E545K) = molecular target: T13, PIK3CA (E545K) (Homo sapiens, UniProt P42336, E545K)
# T13 construct: host or cells: E. coli host derived from the BL21 strain, infected with T7 phage
# Summary of the method: as §1
# PIK3CA = molecular target: T14, PIK3CA (Homo sapiens, UniProt P42336)
# T14 construct: host or cells: E. coli host derived from the BL21 strain, infected with T7 phage
# Summary of the method: as §1
# PIP5K1A = molecular target: T15, PIP5K1A (Homo sapiens, UniProt Q99755)
# T15 construct: purchased Ambit Biosciences Corp (KinomeScan); host or cells: E. coli host derived from BL21, infected with T7 phage
# Summary of the method: as §1
# RIPK1 = molecular target: T16, RIPK1 (Homo sapiens, UniProt Q13546)
# T16 construct: host or cells: E. coli host derived from BL21, T7 phage lysate
# Summary of the method: as §1
# [2] = molecular target: T17, RPS6KA2 (Kin.Dom.-2-C-terminal) (Homo sapiens, UniProt Q15349)
# T17 construct: RPS6KA2 (Kin.Dom.-2-C-terminal); host or cells: E. coli host derived from BL21, T7 phage lysate
# Summary of the method: as §1
# [3] = molecular target: T18, RPS6KA5 (Kin.Dom.-1-N-terminal) (Homo sapiens, UniProt O75582)
# T18 construct: RPS6KA5 (Kin.Dom.-1-N-terminal); host or cells: E. coli host derived from BL21, T7 phage lysate
# Summary of the method: as §1
# TLK1 = molecular target: T19, TLK1 (Homo sapiens, UniProt Q9UKI8)
# T19 construct: purchased Ambit Biosciences Corp (KinomeScan); host or cells: E. coli host derived from the BL21 strain (T7 phage lysate)
# Summary of the method: as §1
# TRKA = molecular target: T20, TRKA (Homo sapiens, UniProt P04629)
# T20 construct: purchased Ambit Biosciences Corp (KinomeScan); host or cells: E. coli host derived from the BL21 strain (T7 phage lysate)
# Summary of the method: as §1
# p38-delta = molecular target: T21, p38-delta (Homo sapiens, UniProt O15264)
# T21 construct: host or cells: E. coli host derived from the BL21 strain, infected with T7 phage
# Summary of the method: as §1
# T9 sequence (Q9P289 whole entry): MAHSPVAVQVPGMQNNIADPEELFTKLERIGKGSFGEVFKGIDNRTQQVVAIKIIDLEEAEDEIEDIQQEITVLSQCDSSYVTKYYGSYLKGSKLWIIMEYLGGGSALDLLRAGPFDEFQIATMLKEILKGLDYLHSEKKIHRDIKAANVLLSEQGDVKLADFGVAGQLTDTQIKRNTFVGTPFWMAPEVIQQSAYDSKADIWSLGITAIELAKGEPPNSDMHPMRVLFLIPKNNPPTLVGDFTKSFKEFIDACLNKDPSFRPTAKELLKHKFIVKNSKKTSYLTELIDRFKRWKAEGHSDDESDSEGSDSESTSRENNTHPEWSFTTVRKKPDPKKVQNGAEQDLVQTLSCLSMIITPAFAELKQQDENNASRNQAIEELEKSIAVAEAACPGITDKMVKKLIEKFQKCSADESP
# T11 sequence (Q07002 whole entry): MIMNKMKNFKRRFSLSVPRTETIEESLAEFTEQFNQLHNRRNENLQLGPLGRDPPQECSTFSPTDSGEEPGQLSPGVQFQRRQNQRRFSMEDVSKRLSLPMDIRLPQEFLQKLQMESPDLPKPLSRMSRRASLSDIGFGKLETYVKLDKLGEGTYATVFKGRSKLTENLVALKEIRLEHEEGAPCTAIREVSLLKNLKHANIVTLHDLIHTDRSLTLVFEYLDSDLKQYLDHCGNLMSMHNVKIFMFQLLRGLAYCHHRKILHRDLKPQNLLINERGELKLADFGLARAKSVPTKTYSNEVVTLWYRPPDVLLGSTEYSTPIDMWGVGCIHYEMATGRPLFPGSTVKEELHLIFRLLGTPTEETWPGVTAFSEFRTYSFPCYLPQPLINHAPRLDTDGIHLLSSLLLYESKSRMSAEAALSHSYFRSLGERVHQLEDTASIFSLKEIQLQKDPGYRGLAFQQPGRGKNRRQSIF
# T4 sequence (O94768 whole entry): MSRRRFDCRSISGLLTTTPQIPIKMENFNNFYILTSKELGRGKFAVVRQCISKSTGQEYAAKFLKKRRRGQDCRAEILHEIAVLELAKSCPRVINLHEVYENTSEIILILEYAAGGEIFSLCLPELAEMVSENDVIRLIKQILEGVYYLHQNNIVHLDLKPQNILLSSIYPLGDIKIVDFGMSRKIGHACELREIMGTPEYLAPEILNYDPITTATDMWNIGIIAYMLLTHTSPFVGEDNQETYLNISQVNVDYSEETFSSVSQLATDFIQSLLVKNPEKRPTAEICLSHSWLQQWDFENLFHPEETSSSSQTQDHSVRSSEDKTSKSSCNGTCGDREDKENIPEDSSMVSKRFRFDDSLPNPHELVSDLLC
# T5 sequence (P27361 whole entry): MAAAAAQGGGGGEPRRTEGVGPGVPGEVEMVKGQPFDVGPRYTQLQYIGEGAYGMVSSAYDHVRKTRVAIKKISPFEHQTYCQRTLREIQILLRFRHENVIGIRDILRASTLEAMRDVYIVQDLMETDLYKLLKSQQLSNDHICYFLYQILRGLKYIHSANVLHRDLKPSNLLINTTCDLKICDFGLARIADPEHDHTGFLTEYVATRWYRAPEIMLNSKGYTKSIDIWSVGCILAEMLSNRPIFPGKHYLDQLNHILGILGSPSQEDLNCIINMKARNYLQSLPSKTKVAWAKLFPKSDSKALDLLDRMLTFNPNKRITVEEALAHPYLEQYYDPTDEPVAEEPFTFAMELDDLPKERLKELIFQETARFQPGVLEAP
# T21 sequence (O15264 whole entry): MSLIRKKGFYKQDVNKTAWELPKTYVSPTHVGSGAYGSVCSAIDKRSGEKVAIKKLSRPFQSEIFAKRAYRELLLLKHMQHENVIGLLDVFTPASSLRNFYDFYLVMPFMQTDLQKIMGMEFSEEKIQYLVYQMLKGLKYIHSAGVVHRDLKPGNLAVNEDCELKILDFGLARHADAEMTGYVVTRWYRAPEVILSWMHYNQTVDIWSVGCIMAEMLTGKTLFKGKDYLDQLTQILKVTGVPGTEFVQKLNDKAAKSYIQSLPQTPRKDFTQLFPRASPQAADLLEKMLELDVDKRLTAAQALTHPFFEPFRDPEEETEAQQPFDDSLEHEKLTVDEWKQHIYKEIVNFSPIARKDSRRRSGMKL
# T14 sequence (P42336 whole entry): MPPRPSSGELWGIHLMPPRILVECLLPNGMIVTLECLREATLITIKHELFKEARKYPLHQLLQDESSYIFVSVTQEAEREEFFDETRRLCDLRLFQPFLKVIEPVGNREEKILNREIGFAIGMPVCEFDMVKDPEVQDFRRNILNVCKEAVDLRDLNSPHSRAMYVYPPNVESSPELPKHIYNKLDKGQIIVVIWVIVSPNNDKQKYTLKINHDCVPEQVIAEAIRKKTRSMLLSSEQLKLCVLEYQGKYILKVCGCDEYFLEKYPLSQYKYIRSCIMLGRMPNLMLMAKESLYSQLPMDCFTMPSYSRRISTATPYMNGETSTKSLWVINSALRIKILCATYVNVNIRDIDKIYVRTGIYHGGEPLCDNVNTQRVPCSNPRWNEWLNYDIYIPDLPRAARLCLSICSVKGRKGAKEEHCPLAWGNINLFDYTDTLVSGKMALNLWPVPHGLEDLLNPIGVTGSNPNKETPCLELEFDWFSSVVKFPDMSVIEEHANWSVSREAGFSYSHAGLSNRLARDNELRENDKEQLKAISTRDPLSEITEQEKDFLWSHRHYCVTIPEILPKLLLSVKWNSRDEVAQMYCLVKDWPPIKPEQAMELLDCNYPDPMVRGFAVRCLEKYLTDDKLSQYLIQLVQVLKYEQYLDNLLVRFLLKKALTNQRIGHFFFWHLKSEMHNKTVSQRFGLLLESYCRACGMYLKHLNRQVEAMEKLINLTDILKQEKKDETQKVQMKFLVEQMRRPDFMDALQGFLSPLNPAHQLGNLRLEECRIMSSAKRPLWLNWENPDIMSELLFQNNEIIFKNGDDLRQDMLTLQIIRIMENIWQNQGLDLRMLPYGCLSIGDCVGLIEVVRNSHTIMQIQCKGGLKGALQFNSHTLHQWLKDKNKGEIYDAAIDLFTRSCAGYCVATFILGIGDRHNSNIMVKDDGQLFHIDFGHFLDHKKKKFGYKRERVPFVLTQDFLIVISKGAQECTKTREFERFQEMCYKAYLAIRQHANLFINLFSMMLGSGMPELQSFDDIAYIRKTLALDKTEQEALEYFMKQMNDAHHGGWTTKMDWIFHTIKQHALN
# T20 sequence (P04629 33-796): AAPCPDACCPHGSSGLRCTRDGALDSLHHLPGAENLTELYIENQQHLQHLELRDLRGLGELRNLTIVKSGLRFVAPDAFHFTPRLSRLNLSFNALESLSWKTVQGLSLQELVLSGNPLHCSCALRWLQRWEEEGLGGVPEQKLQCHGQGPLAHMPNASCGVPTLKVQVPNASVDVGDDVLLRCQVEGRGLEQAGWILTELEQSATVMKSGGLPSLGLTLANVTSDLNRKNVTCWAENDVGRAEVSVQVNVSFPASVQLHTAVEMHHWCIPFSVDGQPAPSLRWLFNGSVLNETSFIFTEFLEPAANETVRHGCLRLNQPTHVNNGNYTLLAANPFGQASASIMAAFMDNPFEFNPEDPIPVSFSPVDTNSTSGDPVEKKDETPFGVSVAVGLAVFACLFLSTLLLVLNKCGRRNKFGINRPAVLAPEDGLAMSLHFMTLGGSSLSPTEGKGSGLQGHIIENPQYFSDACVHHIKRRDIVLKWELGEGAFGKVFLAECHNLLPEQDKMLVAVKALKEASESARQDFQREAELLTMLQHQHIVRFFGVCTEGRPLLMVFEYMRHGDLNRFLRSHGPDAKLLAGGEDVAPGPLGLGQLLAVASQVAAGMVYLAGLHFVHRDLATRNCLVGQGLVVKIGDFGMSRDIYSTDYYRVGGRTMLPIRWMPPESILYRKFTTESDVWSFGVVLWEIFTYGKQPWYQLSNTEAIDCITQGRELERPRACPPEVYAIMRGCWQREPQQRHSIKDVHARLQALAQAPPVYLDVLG
# T6 sequence (P22607 23-806): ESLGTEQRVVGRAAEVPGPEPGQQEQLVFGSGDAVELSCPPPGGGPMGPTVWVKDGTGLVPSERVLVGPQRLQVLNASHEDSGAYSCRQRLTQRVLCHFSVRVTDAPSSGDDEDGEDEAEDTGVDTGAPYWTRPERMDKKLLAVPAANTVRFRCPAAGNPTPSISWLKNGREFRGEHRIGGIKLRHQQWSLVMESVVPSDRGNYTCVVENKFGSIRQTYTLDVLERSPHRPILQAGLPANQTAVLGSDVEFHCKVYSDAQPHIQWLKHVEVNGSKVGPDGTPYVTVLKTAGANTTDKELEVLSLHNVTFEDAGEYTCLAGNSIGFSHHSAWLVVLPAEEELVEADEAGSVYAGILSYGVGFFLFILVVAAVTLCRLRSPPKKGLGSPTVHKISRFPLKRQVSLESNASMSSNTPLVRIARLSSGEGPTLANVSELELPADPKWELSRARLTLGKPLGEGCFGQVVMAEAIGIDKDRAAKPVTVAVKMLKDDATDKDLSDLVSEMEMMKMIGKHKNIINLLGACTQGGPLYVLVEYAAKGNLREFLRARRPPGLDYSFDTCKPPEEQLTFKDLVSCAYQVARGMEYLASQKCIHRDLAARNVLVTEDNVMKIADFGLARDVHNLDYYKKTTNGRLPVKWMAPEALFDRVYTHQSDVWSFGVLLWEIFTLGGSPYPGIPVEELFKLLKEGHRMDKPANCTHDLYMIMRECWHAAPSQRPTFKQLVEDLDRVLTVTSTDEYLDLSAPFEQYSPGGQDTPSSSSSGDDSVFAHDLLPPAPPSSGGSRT
# T13 sequence (P42336 whole entry E545K): as the sequence (P42336 whole entry) above, with E545K counted along it
# T17 sequence (Q15349 415-672 limits assumed): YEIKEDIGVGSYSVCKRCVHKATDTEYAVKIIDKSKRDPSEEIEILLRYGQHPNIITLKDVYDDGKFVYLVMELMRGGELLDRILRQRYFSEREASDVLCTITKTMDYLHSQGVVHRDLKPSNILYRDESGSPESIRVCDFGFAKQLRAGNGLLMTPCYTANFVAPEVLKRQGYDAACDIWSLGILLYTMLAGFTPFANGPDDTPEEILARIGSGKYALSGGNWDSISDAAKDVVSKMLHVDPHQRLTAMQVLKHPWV
structure (smiles),measurement,setting,value
"C#Cc1cccc(Nc2ncnc3cc(OC)c(OCCCN4CCOCC4)cc23)c1 [NRC-2694, N-(3-ethylnylphenyl)-7-methoxy-6-[3-(4-morpholinyl)propoxy]-4-quinazolinamine]",% Ctrl @ 10000 nM,BTK,77 % Ctrl
same,% Ctrl @ 10000 nM,CDC2L2,37 % Ctrl
same,% Ctrl @ 10000 nM,CHEK2,38 % Ctrl
same,% Ctrl @ 10000 nM,DRAK2,58 % Ctrl
same,% Ctrl @ 10000 nM,ERK1,98 % Ctrl
same,% Ctrl @ 10000 nM,FGFR3,100 % Ctrl
same,% Ctrl @ 10000 nM,IKK-epsilon,75 % Ctrl
same,% Ctrl @ 10000 nM,[1],15 % Ctrl
same,% Ctrl @ 10000 nM,MST4,29 % Ctrl
same,% Ctrl @ 10000 nM,PAK4,80 % Ctrl
same,% Ctrl @ 10000 nM,PCTK3,82 % Ctrl
same,% Ctrl @ 10000 nM,PFTAIRE2,71 % Ctrl
same,% Ctrl @ 10000 nM,PIK3CA (E545K),100 % Ctrl
same,% Ctrl @ 10000 nM,PIK3CA,100 % Ctrl
same,% Ctrl @ 10000 nM,PIP5K1A,61 % Ctrl
same,% Ctrl @ 10000 nM,RIPK1,100 % Ctrl
same,% Ctrl @ 10000 nM,[2],78 % Ctrl
same,% Ctrl @ 10000 nM,[3],85 % Ctrl
same,% Ctrl @ 10000 nM,TLK1,77 % Ctrl
same,% Ctrl @ 10000 nM,TRKA,100 % Ctrl
same,% Ctrl @ 10000 nM,p38-delta,100 % Ctrl
